Results on five compounds are retold here after article doi:10.1101/2020.10.06.328336v1 (biorxiv, 2020).

Usually IC50 stands for the concentration that gives 50% inhibition. A higher IC50 goes with weaker potency.

For test [1], the target named is T1, SARS-CoV-2 RdRp complex (nsp12-nsp7-nsp8) (Severe acute respiratory syndrome coronavirus 2, UniProt P0DTD1). The test is described as follows: biochemical.
Test [2] concerns the target T1, SARS-CoV-2 RdRp complex (nsp12-nsp7-nsp8). The test is described as follows: […]. It counts as biochemical.

In test [1], `O=C(Nc1cc(C(=O)Nc2ccc(S(=O)(=O)O)cc2)cc(C(=O)Nc2ccc(S(=O)(=O)O)cc2)c1)Nc1cc(C(=O)Nc2ccc(S(=O)(=O)O)cc2)cc(C(=O)Nc2ccc(S(=O)(=O)O)cc2)c1` [NF110] came in with an IC50 of 580 ± 40 nM.

In turn, `O=C(Nc1cccc(C(=O)Nc2cc(C(=O)Nc3ccc(S(=O)(=O)O)c4cc(S(=O)(=O)O)cc(S(=O)(=O)O)c34)ccc2F)c1)Nc1cccc(C(=O)Nc2cc(C(=O)Nc3ccc(S(=O)(=O)O)c4cc(S(=O)(=O)O)cc(S(=O)(=O)O)c34)ccc2F)c1` [NF157] returned an IC50 in test [1] of 50 nM.

With `O=C(Nc1ccc(C(=O)Nc2ccc(C(=O)Nc3ccc(S(=O)(=O)O)c4cc(S(=O)(=O)O)cc(S(=O)(=O)O)c34)cc2)cc1)Nc1ccc(C(=O)Nc2ccc(C(=O)Nc3ccc(S(=O)(=O)O)c4cc(S(=O)(=O)O)cc(S(=O)(=O)O)c34)cc2)cc1` [NF279], in test [1], inhibition was half-maximal at 50 nM (IC50).

With `Cc1ccc(C(=O)Nc2ccc(S(=O)(=O)O)c3cc(S(=O)(=O)O)cc(S(=O)(=O)O)c23)cc1NC(=O)c1cccc(NC(=O)Nc2cccc(C(=O)Nc3cc(C(=O)Nc4ccc(S(=O)(=O)O)c5cc(S(=O)(=O)O)cc(S(=O)(=O)O)c45)ccc3C)c2)c1` [suramin], in test [2], the IC50 was 260 nM.

In the case of `O=C(Nc1cc(C(=O)Nc2ccc(S(=O)(=O)O)cc2S(=O)(=O)O)cc(C(=O)Nc2ccc(S(=O)(=O)O)cc2S(=O)(=O)O)c1)Nc1cc(C(=O)Nc2ccc(S(=O)(=O)O)cc2S(=O)(=O)O)cc(C(=O)Nc2ccc(S(=O)(=O)O)cc2S(=O)(=O)O)c1` [NF449], in test [1], half-maximal inhibition (IC50) was put at 50 nM.
